Tests used:
[1] = system: HepG2 cells; experiment: Cell viability assay (MTS) in HepG2 cells; assay type: cell-based; conditions: mean; for IC50: Homo sapiens, MTS, n = 5, 72 h for 5r (Figure 2); for % Inhibition of Cell Viability at 10 μM HepG2: n = 3
Method: (§1) HepG2, Huh7, H1299, HT29, AGS and A549 cells were purchased from the Korean Cell Line Bank (Seoul, Korea) and HaCaT cells were obtained from Prof. Sohee Kwon (Yonsei University, Korea). Liver cancer cells (HepG2), human keratinocyte cells (HaCaT), and lung cancer cells (A549) were grown in DMEM high-glucose medium, liver cancer cells (Huh7) and non-small cell lung cancer cells (H1299) were grown in RPMI 1640, and gastric cancer cells (AGS) were grown in Coon’s modified F12 medium. All media were supplemented with 10% FBS, 100 Units/mL penicillin, and 100 μg/mL streptomycin. All cells were incubated at 37 °C, 5% CO2 and 95% humidity.
(§2) Cell viability assay was conducted using Cell Titer 96® AQueous One Solution Cell proliferation Assay kit (Promega, Madison, WI, USA). Five cancer cells and HaCaT cells were plated in 96-well microplates with growth medium for 24 h. When cell confluency reached ~30%, cells were treated with DMSO (vehicle) and test compounds. The medium and test compounds were replaced every 24 h. To measure cell viability, the cells were incubated with MTS solution for 1 h. The absorbance was measured by using Infinite M200 microplate reader (Tecan, Männedorf, Switzerland) at 490 nm.
(§3) Figure 2 Effect of 5r on cell viability in HepG2, Huh7, AGS, H1299, A549, HaCaT, NIH3T3, and HEK293T cells. (A–H) HepG2, Huh7, AGS, H1299, A549, HaCaT, NIH3T3, and HEK293T cells were cultured with 5r at the indicated concentrations for 72 h, and medium was replaced every 24 h with freshly added 5r. Cell viability was measured by MTS analysis (mean ± S.D., n = 5). * p < 0.05, ** p < 0.01, *** p < 0.001.

[2] = system: Huh7 cells; experiment: Cell viability assay (MTS) in Huh7 cells; assay type: cell-based; conditions: Homo sapiens, Huh-7, mean, n = 5, 72 h for 5r (Figure 2)
Method: as §1, §2, §3

[3] = system: HaCaT cells; experiment: Cell viability assay (MTS) in HaCaT cells; assay type: cell-based, human; conditions: Homo sapiens, mean, n = 5
Method: as §1, §2, §3

[4] = system: A549 cells; experiment: Cell viability assay (MTS) in A549 cells; assay type: cell-based; conditions: 10 μM, mean, n = 3
Method: as §1, §2, §3

[5] = system: HT29 cells; experiment: Cell viability assay (MTS) in HT29 cells; assay type: cell-based; conditions: mean, n = 3
Method: as §1, §2

[6] = system: H1299 cells; experiment: Cell viability assay (MTS) in H1299 cells; assay type: cell-based; conditions: 10 μM, mean, n = 3
Method: as §1, §2, §3

[7] = system: AGS cells; experiment: Cell viability assay (MTS) in AGS cells; assay type: cell-based; conditions: 10 μM, mean, n = 3
Method: as §1, §2, §3

IC50 [1]	IC50 [2]	SMILES	IC50 [3]	% Inhibition of Cell Viability at 10 μM A549 [4]	% Inhibition of Cell Viability at 10 μM HT29 [5]	% Inhibition of Cell Viability at 10 μM HepG2 [1]	% Inhibition of Cell Viability at 10 μM H1299 [6]	% Inhibition of Cell Viability at 10 μM AGS [7]
2.1 µM	3.95 µM	N#Cc1c2c3cccn3c(-c3ccccc3Cl)nc2n2ccccc12 [Compound 5u, 5-(2-Chlorophenyl)pyrrolo[1′,2′:1,6]pyrimido[5,4-b]indolizine-12-carbonitrile]	11.5 µM	–	–	–	–	–
–	–	N#Cc1c2c3cccn3c(-c3ccco3)nc2n2ccccc12 [Compound 5m, 5-(Furan-2-yl)pyrrolo[1′,2′:1,6]pyrimido[5,4-b]indolizine-12-carbonitrile]	–	<25%	<25%	64.0%	81.9%	<25%
0.79 µM	0.64 µM	COc1ccc(O)c(-c2nc3c(c(C#N)c4ccccn43)c3cccn23)c1 [Compound 5y, 5-(2-Hydroxy-5-methoxyphenyl)pyrrolo[1′,2′:1,6]pyrimido[5,4-b]indolizine-12-carbonitrile]	2.25 µM	–	–	–	–	–
–	–	N#Cc1c2c3cccn3c(-c3cc4ccccc4[nH]3)nc2n2ccccc12 [Compound 5l, 5-(1H-Indol-2-yl)pyrrolo[1′,2′:1,6]pyrimido[5,4-b]indolizine-12-carbonitrile]	–	46.9%	58.6%	99.2%	62.3%	<25%
1.58 µM	1.92 µM	N#Cc1c2c3cccn3c(-c3ccccc3F)nc2n2ccccc12 [Compound 5t, 5-(2-Fluorophenyl)pyrrolo[1′,2′:1,6]pyrimido[5,4-b]indolizine-12-carbonitrile]	6.78 µM	–	–	–	–	–
–	–	COc1ccc(-c2nc3c(c(C#N)c4ccccn43)c3[nH]c4ccccc4c23)cc1 [Compound 10b, 7-(4-Methoxyphenyl)-12H-indolizino[2′,3′:5,6]pyrido[4,3-b]indole-13-carbonitrile]	–	<25%	<25%	<25%	<25%	<25%
–	–	COc1ccc(-c2nc3c(c(C#N)c4ccccn43)c3cccn23)cc1OC [Compound 5c, 5-(3,4-Dimethoxyphenyl)pyrrolo[1′,2′:1,6]pyrimido[5,4-b]indolizine-12-carbonitrile]	–	47.1%	44.0%	76.7%	94.0%	56.0%
–	–	COc1cc(OC)cc(-c2nc3c(c(C#N)c4ccccn43)c3cccn23)c1 [Compound 5d, 5-(3,5-Dimethoxyphenyl)pyrrolo[1′,2′:1,6]pyrimido[5,4-b]indolizine-12-carbonitrile]	–	<25%	<25%	57.3%	83.4%	<25%
0.64 µM	0.71 µM	COc1ccc(-c2nc3c(c(C#N)c4ccccn43)c3cccn23)c(O)c1 [Compound 5z, 5-(2-Hydroxy-4-methoxyphenyl)pyrrolo[1′,2′:1,6]pyrimido[5,4-b]indolizine-12-carbonitrile]	1.95 µM	–	–	–	–	–
–	–	N#Cc1c2c3[nH]c4ccccc4c3c(-c3ccccc3)nc2n2ccccc12 [Compound 10a, 7-Phenyl-12H-indolizino[2′,3′:5,6]pyrido[4,3-b]indole-13-carbonitrile]	–	45.9%	61.2%	<25%	68.8%	48.4%
–	–	COc1ccc(-c2nc3c(c(C#N)c4ccccn43)c3cccn23)cc1 [Compound 5b, 5-(4-Methoxyphenyl)pyrrolo[1′,2′:1,6]pyrimido[5,4-b]indolizine-12-carbonitrile]	–	25.5%	<25%	57.0%	79.1%	<25%
–	–	COC(=O)c1ccc(-c2nc3c(c(C#N)c4ccccn43)c3cccn23)cc1 [Compound 5j, Methyl 4-(12-cyanopyrrolo[1′,2′:1,6]pyrimido[5,4-b]indolizin-5-yl)benzoate]	–	<25%	<25%	42.2%	52.8%	<25%
–	–	N#Cc1c2c3cccn3c(-c3cccc4ccccc34)nc2n2ccccc12 [Compound 5g, 5-(Naphthalen-1-yl)pyrrolo[1′,2′:1,6]pyrimido[5,4-b]indolizine-12-carbonitrile]	–	<25%	<25%	49.2%	82.8%	<25%
–	–	N#Cc1c2c3[nH]c4ccccc4c3c(-c3ccc(Br)cc3)nc2n2ccccc12 [Compound 10c, 7-(4-Bromophenyl)-12H-indolizino[2′,3′:5,6]pyrido[4,3-b]indole-13-carbonitrile]	–	<25%	<25%	39.6%	<25%	<25%
–	–	N#Cc1c2c3cccn3c(-c3ccccn3)nc2n2ccccc12 [Compound 5k, 5-(Pyridin-2-yl)pyrrolo[1′,2′:1,6]pyrimido[5,4-b]indolizine-12-carbonitrile]	–	29.0%	28.8%	90.6%	83.8%	<25%
–	–	COc1cc(-c2nc3c(c(C#N)c4ccccn43)c3cccn23)cc(OC)c1OC [Compound 5e, 5-(3,4,5-Trimethoxyphenyl)pyrrolo[1′,2′:1,6]pyrimido[5,4-b]indolizine-12-carbonitrile]	–	25.3%	<25%	37.7%	89.0%	<25%
–	–	N#Cc1c2c3cccn3c(-c3ccc(Br)cc3)nc2n2ccccc12 [Compound 5i, 5-(4-Bromophenyl)pyrrolo[1′,2′:1,6]pyrimido[5,4-b]indolizine-12-carbonitrile]	–	36.7%	<25%	87.4%	92.1%	<25%
–	–	N#Cc1c2c3cccn3c(-c3ccc(Cl)cc3)nc2n2ccccc12 [Compound 5h, 5-(4-Chlorophenyl)pyrrolo[1′,2′:1,6]pyrimido[5,4-b]indolizine-12-carbonitrile]	–	52.5%	26.9%	88.4%	80.0%	31.0%
–	–	N#Cc1c2c3cccn3cnc2n2ccccc12 [Compound 8, Pyrrolo[1′,2′:1,6]pyrimido[5,4-b]indolizine-12-carbonitrile]	–	<25%	<25%	<25%	<25%	<25%
–	–	N#Cc1c2c3cccn3c(-c3ccc4ccccc4c3)nc2n2ccccc12 [Compound 5f, 5-(Naphthalen-2-yl)pyrrolo[1′,2′:1,6]pyrimido[5,4-b]indolizine-12-carbonitrile]	–	<25%	<25%	92.5%	88.4%	<25%
–	–	N#Cc1c2c3cccn3c(-c3ccccc3)nc2n2ccccc12 [Compound 5a, 5-Phenylpyrrolo[1′,2′:1,6]pyrimido[5,4-b]indolizine-12-carbonitrile]	–	<25%	<25%	85.0%	81.5%	<25%
